The values that follow come from patent US5641751A, “Tumor necrosis factor inhibitors” (Centocor, Inc., priority 1995, dated 1997).

Like-named read-outs stand apart in the source and are kept apart here. Ends that are not written are not given here.

This test has as its target T1, human TNFα (Homo sapiens, UniProt P01375).
T1 construct: purchased Biosource, Camarillo, Calif
Put plainly: p55 Receptor/IgG fusion protein binding assay (inhibition of TNFα capture by p55-Ig coated plate). To be noted: inhibition of binding of TNFα to p55TNFr-IgG chimeric construct. Here is the method: This assay was designed to identify peptides which bind to human TNFα and thereby prevent the capture of the TNFα by a microtiter plate coated with p55-Ig fusion protein. A constant concentration of human TNFα is preincubated with the test peptide and then incubated on the p55-Ig coated microtiter wells. Bound TNFα is detected using a specific antisera and an alkaline phosphatase-conjugated probe.
A 96-well, U-bottom polyvinylchloride microtiter plate was coated with 50 μl/well of p55-Ig fusion protein at 5 μg/ml in 0.01M sodium phosphate, 0.15M sodium chloride (PBS) by incubation overnight at 4° C. or 2 hours at 37° C. The fusion protein, which consists of a p55 TNF receptor protein portion and an IgG portion, can be produced as disclosed in U.S. application Ser. No. 08/010,406 filed Jan. 29, 1993 which is incorporated herein by reference. The plate was washed three times with 0.05% Tween-20 in PBS, then blocked, by adding 150 μl/well of assay buffer (10 mM N-2-hydroxyethylpiperazine-N'-[…] (HEPES) pH 7.2, containing 0.1% porcine gelatin, 0.1% Tween-80, and 0.01% sodium azide) and continuing incubation for 1 hour at 37° C. or at 4° C. for 1-7 days.
Lyophilized peptides to be tested were weighed in tared 12×75 mm polystyrene tubes and reconstituted to a concentration of 1.2 mM with assay buffer. Each suspension was sonicated in a water bath for 1-5 minutes and vortexed 15-30 seconds to disperse large particles. Serial dilutions of each peptide suspension were prepared using assay buffer in a 96-well polystyrene microtiter plate. Additional wells received Fab fragment of the mouse/human monoclonal anti-human TNFα antibody cA2 (positive control) or assay buffer (negative control). […] The polystyrene dilution plate was then sealed and incubated 1 hour at room temperature on an orbital mixer set at moderate speed.
Following the sample preincubation, blocker was discarded from the p55-Ig coated plate and blotted dry. Aliquots (50 μl) of each peptide or control were transferred into duplicate wells on the p55-Ig coated plate which was then sealed and incubated 1 hour at 37° C. Duplicate wells containing only assay buffer were included as a plate blank. After incubation the p55-Ig plate was washed three times with 0.05% Tween-20 in PBS.
To detect TNFα captured by the p55-Ig plate, all wells were incubated in succession with polyclonal rabbit anti-human TNFα (Genzyme, Boston, Mass.; 1:500 in assay buffer, 50 μl/well), biotinylated goat anti-rabbit Ig (H&L) (Vector Laboratories, Burlingame, Calif.; 1 μg/ml in assay buffer, 50 μl/well) and streptavidin-alkaline phosphatase conjugate (Pierce, Rockford, Ill.; 1 μg/ml in assay buffer, 50 μl/well). All incubations were for 1 hour at 37° C. and after each incubation the plate was washed three times with 0.05% Tween-20 in PBS. Fifty microliters of alkaline phosphatase substrate solution (alkaline buffer (Sigma, St. Louis, Mo.) diluted 1:500 in deionized water plus one 5 mg tablet of p-nitrophenyl phosphate (Sigma, St. Louis, Mo.) per 5 ml of diluted buffer) was added to all wells and incubation continued for 20 minutes at room temperature. Color development was stopped by adding to all wells 50 μl of 3N sodium hydroxide. The optical density (OD) at 405 nm was measured on a microtiter plate reader (Molecular Devices Vmax plate reader), with the plate blank wells subtracted as background. The activity of each peptide was then expressed as the percent inhibition of TNFα capture by the p55-Ig plate, relative to the amount of TNFα captured in wells containing only assay buffer (negative control), as follows:
% inhibition=100-((mean OD peptide/mean OD negative control)×100).
The inhibition of binding of TNFα to p55TNFr-IgG chimeric construct was performed as described above using several embodiments of the invention. The peptides were tested to determine the concentration necessary to inhibit TNFα by 50% (IC50) relative to TNFα activity in the absence of the peptide.

Where [1] appears, read: TNFα 25 ng/ml, read-out: IC50 (concentration necessary to inhibit TNFα by 50%).
Where [2] appears, read: highest value observed, read-out: maximum IC50 observed.
The mark [3] stands for this setting: lowest value observed, read-out: minimum IC50 observed.

T1 sequence (P01375 77-233 limits assumed): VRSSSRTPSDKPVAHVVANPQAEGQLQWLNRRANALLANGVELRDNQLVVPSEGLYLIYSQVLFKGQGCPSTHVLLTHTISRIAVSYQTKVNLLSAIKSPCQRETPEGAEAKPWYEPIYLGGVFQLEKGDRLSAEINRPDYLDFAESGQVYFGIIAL

With Ac-LLIYYVSNRYTG-NH2 [SEQ ID NO:17], the IC50 is, setting by setting: under setting [1], 155 µM; under setting [2], 210 µM; under setting [3], 51 µM.

For the substance Ac-LLIYYVSNRYTGV-NH2 [SEQ ID NO:18], the IC50 reads like this: under setting [1], 307 µM; under setting [2], 829 µM; under setting [3], 29 µM.

Regarding “Ac-NINPNNGGTIYNQFKFGKG-NH2 [SEQ ID NO:1]”, the IC50 by setting is: under setting [1], 20 µM; under setting [2], 91 µM; under setting [3], 8 µM.

Turning to Ac-SASSSVSFMYW-NH2 [SEQ ID NO:2], the IC50 amounted to 29 µM under setting [1], 60 µM under setting [2] and 9 µM under setting [3].

As to Ac-VIWRGGSTDYNAAFMS-NH2 [SEQ ID NO:20], the IC50 runs as follows: under setting [1], 86 µM; under setting [2], 150 µM; under setting [3], 37 µM.

For the substance SASSSVSFMYA-NH2 [SEQ ID NO:4], the IC50 is, setting by setting: under setting [1], 80 µM; under setting [2], 87 µM; under setting [3], 74 µM.

Consider “SEQ ID NO:3: SEQ ID NO:3 in which the carboxy terminal tryptophan is tryptophan amide; comprises a fragment of SEQ ID NO:2 (SAASSVSFMYW-NH2)”, for which the IC50 by setting is: under setting [1], 23 µM; under setting [2], 33 µM; under setting [3], 10 µM.
